In US11541033B2, “Agent for preventing or treating Alzheimer's disease” (FUJIFILM Toyama Chemical Co., Ltd., priority 2017, dated 2023):

Columns and labels:
[1] = tested on: mild to moderate AD patients; experiment: Test Example 1: phase II placebo-controlled trial, ADAS-cog change from baseline; assay type: in vivo, human
From the text: Test Example 1 Multicenter Randomized Double-Blind Phase II Placebo-Controlled Trial for Assessing Effectiveness and Safety of Compound a in Mild to Moderate AD Patients
Patients were screened in a period from 42 days before treatment assignment to the assignment based on the following selection criteria. Patients matched (484 patients) were randomly divided into the following 3 groups and the trial was started.
• Patients who were probable AD and are 55 years old or older and 85 years old or younger at the time of obtaining consent of screening. • Patients with an MMSE score of 12 to 22 at the time of screening • Patients with a Modified Hachinski Ischemia Scale score of 4 or less • Patients who have been treated with a donepezil hydrochloride or rivastigmine transdermal system for at least 4 months before the baseline and with a stable dose thereof for 3 months before the baseline. • In the case of patients who have received memantine in addition to being treated with a donepezil hydrochloride or rivastigmine transdermal system, patients who have been treated with memantine for at least 4 months before the baseline and with a stable dose thereof for 3 months before the baseline. • Patients whose brain MRI or CT results match AD at the time of screening Organization of Groups: (1) High dose group: 224 mg of a test compound (160 mg in terms of Compound A) was orally administered once a day for 4 weeks and then 448 mg of a test compound (320 mg in terms of Compound A) was orally administered once a day for 48 weeks (158 patients) (2) Low dose group: 224 mg of a test compound (160 mg in terms of Compound A) was orally administered once a day for 52 weeks (166 patients) (3) Placebo group: placebo was orally administered once a day for 52 weeks (158 patients) Method of assessment: (1) ADAS-cog
(§1) The ADAS-cog score of the subject was evaluated at the baseline (before administration of investigational drug on the first day of administration) and after 52 weeks and the cognitive function was assessed based on the change from the baseline.
Changes in the ADAS-cog score and the ADCS-ADL score after 52 weeks from the baseline were compared between the high dose group and the placebo group, and between the low dose group and the placebo group based on the Mixed-effect Models for Repeated Measures (MMRM) with a significance level of 5%. For models, fixed effects included the treatment groups and time, while covariates included age, the baseline of ADAS-cog or ADCS-ADL, the baseline of MMSE and ApoE4 genotype (positive/negative). The interaction between time and the treatment groups and the interaction between the baseline of ADAS-cog and time were also included.

[2] = tested on: mild to moderate AD patients; experiment: Test Example 2: early phase II placebo-controlled trial, ADAS-cog change from baseline; assay type: in vivo, human; settings: for Change in ADAS-cog from baseline at week 52, least square means (95% confidence interval) / Change in ADAS-cog from baseline at week 52, difference from placebo group (95% confidence interval): MMSE 22 or less at screening
From the text: Test Example 2 Multicenter Randomized Double-Blind Early Phase II Placebo-Controlled Trial for Assessing Effectiveness and Safety of Compound a in Mild to Moderate AD Patients
Patients were screened in a period from 28 days before treatment assignment to the assignment based on the following selection criteria. Patients matched (373 patients) were randomly divided into the following 2 groups and the trial was started.
• Patients who were probable AD and over or 50 years old or older and 90 years old or younger at the time of obtaining consent of screening. • Patients with an MMSE score of 15 to 24 at the time of screening • Patients with a Modified Hachinski Ischemia Scale score of 4 or less • Patients who have been treated with a donepezil hydrochloride for at least 6 months before the baseline and with a stable dose thereof for 3 months before the baseline. • Patients whose brain MRI or CT results match AD at the time of screening Organization of Groups: (1) Active drug group: 224 mg of a test compound (160 mg in terms of Compound A) was orally administered once a day for 52 weeks (176 patients) (2) Placebo group: placebo was orally administered once a day for 52 weeks (178 patients) Method of assessment: (1) ADAS-cog
as §1
Changes in the ADAS-cog score and the ADCS-ADL score after 52 weeks from the baseline were compared between the high dose group and the placebo group, and between the low dose group and the placebo group based on MMRM with a significance level of 5%. For models, fixed effects included the treatment groups and time, while covariates included the baseline of ADAS-cog or ADCS-ADL and the baseline of MMSE. The interaction between time and the treatment groups and the interaction between the baseline of ADAS-cog and time were also included. For the period from clinical diagnosis, the first day of administration of donepezil hydrochloride which was combined with Compound A was defined as the time of clinical diagnosis. Furthermore, to match the conditions with those of Test Example 1, the subject was patients with an MMSE score of 22 or less at the time of screening.

[3] = high dose group, within 3 years from clinical diagnosis
[4] = high dose group, within 3.2 years from clinical diagnosis
[5] = high dose group, within 3.4 years from clinical diagnosis
[6] = high dose group, within 3.6 years from clinical diagnosis
[7] = high dose group, within 3.8 years from clinical diagnosis
[8] = high dose group, within 4.0 years from clinical diagnosis
[9] = high dose group, within 5.0 years from clinical diagnosis
[10] = high dose group, within 6.0 years from clinical diagnosis
[11] = low dose group (160 mg in terms of Compound A, oral once a day, 52 weeks), within 2.6 years from clinical diagnosis
[12] = low dose group (160 mg), more than 2.6 years from clinical diagnosis
[13] = low dose group (160 mg), total (all periods from clinical diagnosis)
[14] = low dose group (160 mg), within 2.6 years from clinical diagnosis
[15] = low dose group (160 mg), total (all periods)

**Q.** OC1CN(CCCOCCc2ccc3sccc3c2)C1 [Compound A, 1-(3-(2-(1-benzothiophen-5-yl)ethoxy)propyl)azetidin-3-ol] was tested. Which “Change in ADAS-cog from baseline at week 52, least square means (95% confidence interval)” value ([1]; high dose group, within 2.8 years from clinical diagnosis) did it give?
**A.** 6.2

**Q.** And the “Change in ADAS-cog from baseline at week 52, difference from placebo group (95% confidence interval)” value [1, 3]?
**A.** −2.2

**Q.** What about the “Change in ADAS-cog from baseline at week 52, least square means (95% confidence interval)” value [1, 3] of the same molecule?
**A.** 6.1

**Q.** What about the “Change in ADAS-cog from baseline at week 52, difference from placebo group (95% confidence interval)” value [1, 4] of the same molecule?
**A.** −2.0

**Q.** What about the “Change in ADAS-cog from baseline at week 52, least square means (95% confidence interval)” value [1, 4] of the same molecule?
**A.** 6.4

**Q.** And the “Change in ADAS-cog from baseline at week 52, difference from placebo group (95% confidence interval)” value [1, 5]?
**A.** −1.8

**Q.** What about the “Change in ADAS-cog from baseline at week 52, least square means (95% confidence interval)” value [1, 5] of the same molecule?
**A.** 6.4

**Q.** What about the “Change in ADAS-cog from baseline at week 52, difference from placebo group (95% confidence interval)” value [1, 6] of the same molecule?
**A.** −1.8

**Q.** And the “Change in ADAS-cog from baseline at week 52, least square means (95% confidence interval)” value [1, 6]?
**A.** 6.7

**Q.** And the “Change in ADAS-cog from baseline at week 52, difference from placebo group (95% confidence interval)” value [1, 7]?
**A.** −2.1

**Q.** And the “Change in ADAS-cog from baseline at week 52, least square means (95% confidence interval)” value [1, 7]?
**A.** 6.5

**Q.** What about the “Change in ADAS-cog from baseline at week 52, difference from placebo group (95% confidence interval)” value [1, 8] of the same molecule?
**A.** −1.7

**Q.** What about the “Change in ADAS-cog from baseline at week 52, least square means (95% confidence interval)” value [1, 8] of the same molecule?
**A.** 6.6

**Q.** What about the “Change in ADAS-cog from baseline at week 52, difference from placebo group (95% confidence interval)” value [1, 9] of the same molecule?
**A.** −1.9

**Q.** What about the “Change in ADAS-cog from baseline at week 52, least square means (95% confidence interval)” value [1, 9] of the same molecule?
**A.** 6.5

**Q.** And the “Change in ADAS-cog from baseline at week 52, difference from placebo group (95% confidence interval)” value [1, 10]?
**A.** −0.9

**Q.** What about the “Change in ADAS-cog from baseline at week 52, least square means (95% confidence interval)” value [1, 10] of the same molecule?
**A.** 7.2

**Q.** What about the “Change in ADAS-cog from baseline at week 52, least square means (95% confidence interval)” value [1, 11] of the same molecule?
**A.** 8.1 (6.0, 10.2)

**Q.** What about the “Change in ADAS-cog from baseline at week 52, difference from placebo group (95% confidence interval)” value [1, 12] of the same molecule?
**A.** 0.1 (−2.5, 2.8)

**Q.** And the “Change in ADAS-cog from baseline at week 52, least square means (95% confidence interval)” value [1, 12]?
**A.** 6.8 (4.8, 8.7)

**Q.** And the “Change in ADAS-cog from baseline at week 52, difference from placebo group (95% confidence interval)” value [1, 13]?
**A.** −0.5 (−2.4, 1.4)

**Q.** What about the “Change in ADAS-cog from baseline at week 52, least square means (95% confidence interval)” value [1, 13] of the same molecule?
**A.** 7.4 (6.0, 8.9)

**Q.** And the “Change in ADAS-cog from baseline at week 52, difference from placebo group (95% confidence interval)” value [1, 14]?
**A.** −0.9 (−3.6, 1.8)

**Q.** What about the “Changes in ADAS-cog from the baseline at week 52, Compound A group versus placebo group (in words)” value ([2]; Test Example 2, all subject patients) of the same molecule?
**A.** no statistically significant difference

**Q.** What about the “Changes in ADAS-cog from the baseline at week 52, Compound A low dose group versus placebo group (in words)” value ([2]; Test Example 2, low dose group (160 mg), within 2.6 years from clinical diagnosis of AD and MMSE score of 22 or less at screening) of the same molecule?
**A.** statistically significant difference

**Q.** And the “Change in ADAS-cog from baseline at week 52, least square means (95% confidence interval)” value [2, 11]?
**A.** 1.3(−0.3, 4.7)

**Q.** And the “Change in ADAS-cog from baseline at week 52, difference from placebo group (95% confidence interval)” value [2, 12]?
**A.** 1.7(−1.3, 4.7)

**Q.** What about the “Change in ADAS-cog from baseline at week 52, least square means (95% confidence interval)” value [2, 12] of the same molecule?
**A.** 3.0(0.8, 5.3)

**Q.** And the “Change in ADAS-cog from baseline at week 52, difference from placebo group (95% confidence interval)” value [2, 15]?
**A.** −1.2(−3.0, 0.5)

**Q.** What about the “Change in ADAS-cog from baseline at week 52, least square means (95% confidence interval)” value [2, 15] of the same molecule?
**A.** 1.9(0.5, 3.2)

**Q.** What about the “Change in ADAS-cog from baseline at week 52, difference from placebo group (95% confidence interval)” value [2, 14] of the same molecule?
**A.** −2.6(−4.8, −0.5)
